These results are taken from US9040727B2, “Histone deacetylase inhibitor of benzamides and use thereof” (Shanghai Institute of Pharmaceutical Industry, priority 2011, dated 2015).

SMILES strings stand for the structures. pIC50: −log10 of the molar value.

One test concerns multiple strains of tumor cells. Briefly: In vitro inhibition of proliferation of tumor cell strains (overall comparison). The test is classed as cell-based. To be noted: comparison with MS-275. The procedure: (§1) The inhibitory activities of the compounds towards Hut78 T lymphocytic leukemia cells, Jurkat E6-1 human T-cell lymphoma, A549 human lung cancer cells, K562 human chronic myelogenous leukemia cells, Hep3B2.1-7 human liver cancer cells, MDA-MB-435s human breast cancer cells, Colo320 human rectal cancer cell line, and PC-3 human prostate cancer were determined. The inhibition percentages as represented by IC50 values were obtained through CCK-8 method.
`Nc1ccc(F)cc1NC(=O)c1ccc(CNC(=O)c2cc3ccccc3s2)cc1` [Compound V-27]: the “inhibition rate for tumor cells compared with MS-275” value was “higher inhibition rate for multiple strains of tumor cells as compared with MS-275”.

For `Cc1ccc2[nH]c(C(=O)NCc3ccc(C(=O)Nc4ccccc4N)cc3)cc2c1` [Compound V-19], the “inhibition rate for tumor cells compared with MS-275” value is “higher inhibition rate for multiple strains of tumor cells as compared with MS-275”.

Regarding `CC(=O)Nc1ccc2[nH]c(C(=O)NCc3ccc(C(=O)Nc4ccccc4N)cc3)cc2c1` [Compound V-25], the “inhibition rate for tumor cells compared with MS-275” value is listed as “higher inhibition rate for multiple strains of tumor cells as compared with MS-275”.

For the next test, the system named is HDACs. The test is described as follows: In vitro inhibition of HDACs (HDAC Inhibitor Drug Screening Kit). The format is biochemical.
Conditions: not given
The procedure: The test was conducted according to the instructions in the HDAC Inhibitor Drug Screening Kit (Biovision/Catalog #50051, BPS).
(§2) Each dilution sample was placed in two wells and the enzyme inhibition IC50 of the compound was tested.
On to `Nc1ccc(F)cc1NC(=O)c1ccc(CNC(=O)c2cc3ccccc3s2)cc1` [Compound V-27], for which the negative logarithm of the IC50 (pIC50) is 5.91.

The compound `Nc1ccccc1NC(=O)c1ccc(CNC(=O)c2cc3ccccc3s2)cc1` [Compound V-24] gave a pIC50 of 5.76.

Regarding `Nc1cnccc1NC(=O)c1ccc(CNC(=O)c2cccc3ccccc23)cc1` [Compound V-16], the pIC50 is 5.51.

The compound `Cc1ccc2[nH]c(C(=O)NCc3ccc(C(=O)Nc4ccccc4N)cc3)cc2c1` [Compound V-19] had a pIC50 of 5.94.

In turn, `CC(=O)Nc1ccc2[nH]c(C(=O)NCc3ccc(C(=O)Nc4ccccc4N)cc3)cc2c1` [Compound V-25] had a pIC50 of 5.99.

Regarding `COc1c(C(=O)NCc2ccc(C(=O)Nc3ccccc3N)cc2)oc2ccccc12` [Compound V-21], the pIC50 was 5.03.

The same test, now with this note: comparison with MS-275.
As for `Nc1ccccc1NC(=O)c1ccc(CNC(=O)c2cc3ccccc3s2)cc1` [Compound V-24], the “inhibitory activity on HDACs compared with MS-275 (by IC50)” value was “better inhibitory activities than MS-275”.

On to `Nc1cnccc1NC(=O)c1ccc(CNC(=O)c2cccc3ccccc23)cc1` [Compound V-16], for which the “inhibitory activity on HDACs compared with MS-275 (by IC50)” value is “better inhibitory activities than MS-275”.

As to `Cc1ccc2[nH]c(C(=O)NCc3ccc(C(=O)Nc4ccccc4N)cc3)cc2c1` [Compound V-19], the “inhibitory activity on HDACs compared with MS-275 (by IC50)” value is listed as “better inhibitory activities than MS-275”.

In another test the test system is Hep3B2.1-7 human liver cancer cells. The test is described as follows: In vitro anti-proliferative effect, CCK-8 method. The format is cell-based. To be noted: Homo sapiens, Hep3B. The procedure: as §1
In the case of `Nc1ccc(F)cc1NC(=O)c1ccc(CNC(=O)c2cc3ccccc3s2)cc1` [Compound V-27], the pIC50 was 4.80.

On to `Nc1cnccc1NC(=O)c1ccc(CNC(=O)c2cccc3ccccc23)cc1` [Compound V-16], for which the pIC50 is 5.47.

Take `Cc1ccc2[nH]c(C(=O)NCc3ccc(C(=O)Nc4ccccc4N)cc3)cc2c1` [Compound V-19]: the pIC50 is 4.99.

The next test concerns Hut78 T lymphocytic leukemia cells. The test is described as follows: In vitro anti-proliferative effect, CCK-8 method. The format is cell-based. The following applies: Homo sapiens, HuT78. The procedure: as §1
Consider `Nc1ccc(F)cc1NC(=O)c1ccc(CNC(=O)c2cc3ccccc3s2)cc1` [Compound V-27], for which the pIC50 is 7.25.

`Nc1cnccc1NC(=O)c1ccc(CNC(=O)c2cccc3ccccc23)cc1` [Compound V-16]: the pIC50 was 5.75.

In turn, `Cc1ccc2[nH]c(C(=O)NCc3ccc(C(=O)Nc4ccccc4N)cc3)cc2c1` [Compound V-19] showed a pIC50 of 5.93.

In turn, `CC(=O)Nc1ccc2[nH]c(C(=O)NCc3ccc(C(=O)Nc4ccccc4N)cc3)cc2c1` [Compound V-25] had a pIC50 of 6.06.

In the next test the test system is Jurkat E6-1 human T-cell lymphoma. Briefly: In vitro anti-proliferative effect, CCK-8 method. The test is classed as cell-based. The following applies: Homo sapiens. The protocol: as §1
Regarding `Nc1ccc(F)cc1NC(=O)c1ccc(CNC(=O)c2cc3ccccc3s2)cc1` [Compound V-27], the pIC50 was 5.86.

Another test concerns Colo320 human rectal cancer cell line. Briefly: In vitro anti-proliferative effect, CCK-8 method. The format is cell-based. To be noted: Homo sapiens, COLO 320. The procedure: as §1
Consider `Nc1ccc(F)cc1NC(=O)c1ccc(CNC(=O)c2cc3ccccc3s2)cc1` [Compound V-27], for which the pIC50 is 4.57.

Consider `Nc1cnccc1NC(=O)c1ccc(CNC(=O)c2cccc3ccccc23)cc1` [Compound V-16], for which the pIC50 was 4.07.

In a further test the test system is PC-3 human prostate cancer. The test is described as follows: In vitro anti-proliferative effect, CCK-8 method. The test is classed as cell-based. To be noted: Homo sapiens. The protocol: as §1
In the case of `Nc1ccc(F)cc1NC(=O)c1ccc(CNC(=O)c2cc3ccccc3s2)cc1` [Compound V-27], the pIC50 is 5.45.

Consider `Cc1ccc2[nH]c(C(=O)NCc3ccc(C(=O)Nc4ccccc4N)cc3)cc2c1` [Compound V-19], for which the pIC50 is 6.72.

The compound `CC(=O)Nc1ccc2[nH]c(C(=O)NCc3ccc(C(=O)Nc4ccccc4N)cc3)cc2c1` [Compound V-25] showed a pIC50 of 7.16.

The next test deals with A549 human lung cancer cells. The test is described as follows: In vitro anti-proliferative effect, CCK-8 method. The test is classed as cell-based. To be noted: Homo sapiens. The procedure:
as §1
With `Nc1ccc(F)cc1NC(=O)c1ccc(CNC(=O)c2cc3ccccc3s2)cc1` [Compound V-27], the pIC50 is 5.29.

`CC(=O)Nc1ccc2[nH]c(C(=O)NCc3ccc(C(=O)Nc4ccccc4N)cc3)cc2c1` [Compound V-25] gave a pIC50 of 6.53.

Another test concerns K562 human chronic myelogenous leukemia cells. Briefly: In vitro anti-proliferative effect, CCK-8 method. The test is classed as cell-based.
Conditions: not given
The procedure:
as §1
In turn, `Nc1ccc(F)cc1NC(=O)c1ccc(CNC(=O)c2cc3ccccc3s2)cc1` [Compound V-27] showed a pIC50 of 5.55.

In turn, `Nc1cnccc1NC(=O)c1ccc(CNC(=O)c2cccc3ccccc23)cc1` [Compound V-16] showed a pIC50 of 5.22.

As to `Cc1ccc2[nH]c(C(=O)NCc3ccc(C(=O)Nc4ccccc4N)cc3)cc2c1` [Compound V-19], the negative-log IC50 (pIC50) was 5.72.

For a further test, the target named is HDAC1 (Homo sapiens (Human), UniProt Q13547). The test is described as follows: In vitro inhibitory activity towards HDAC1 (HDAC Inhibitor Drug Screening Kit). The test is classed as biochemical.
Chain of HDAC1 (Q13547 whole entry): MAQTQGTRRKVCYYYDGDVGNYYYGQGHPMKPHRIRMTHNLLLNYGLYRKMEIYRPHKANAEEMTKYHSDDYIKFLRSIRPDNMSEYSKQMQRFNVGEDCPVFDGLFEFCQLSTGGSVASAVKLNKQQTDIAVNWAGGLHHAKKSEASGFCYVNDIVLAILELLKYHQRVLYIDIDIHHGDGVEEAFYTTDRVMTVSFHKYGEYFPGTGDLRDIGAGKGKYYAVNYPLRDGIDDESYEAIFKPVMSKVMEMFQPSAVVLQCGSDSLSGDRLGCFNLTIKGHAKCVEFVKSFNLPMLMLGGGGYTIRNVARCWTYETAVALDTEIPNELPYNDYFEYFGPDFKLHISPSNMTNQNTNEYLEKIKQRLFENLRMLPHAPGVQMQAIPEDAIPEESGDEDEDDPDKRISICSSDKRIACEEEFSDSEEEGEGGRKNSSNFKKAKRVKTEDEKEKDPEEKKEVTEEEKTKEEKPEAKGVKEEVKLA
Conditions: not given
The procedure: (1) The compounds to be tested were each individually prepared as 10 μM and 1 μM solutions and their inhibitory activities towards HDAC1 at these concentrations were tested.
as §2
`Nc1ccc(F)cc1NC(=O)c1ccc(CNC(=O)c2cc3ccccc3s2)cc1` [Compound V-27]: the pIC50 was 6.56.

For the compound `Nc1ccccc1NC(=O)c1ccc(CNC(=O)c2cc3ccccc3s2)cc1` [Compound V-24], the pIC50 was 5.80.

As to `Nc1cnccc1NC(=O)c1ccc(CNC(=O)c2cccc3ccccc23)cc1` [Compound V-16], the pIC50 was 6.56.

Compound `Cc1ccc2[nH]c(C(=O)NCc3ccc(C(=O)Nc4ccccc4N)cc3)cc2c1` [Compound V-19] gave a pIC50 of 6.38.

For the compound `CC(=O)Nc1ccc2[nH]c(C(=O)NCc3ccc(C(=O)Nc4ccccc4N)cc3)cc2c1` [Compound V-25], the pIC50 was 6.52.

`COc1c(C(=O)NCc2ccc(C(=O)Nc3ccccc3N)cc2)oc2ccccc12` [Compound V-21] showed a pIC50 of 6.12.

The same test, now with this note: comparison with MS-275.
Turning to `Nc1ccc(F)cc1NC(=O)c1ccc(CNC(=O)c2cc3ccccc3s2)cc1` [Compound V-27], the “inhibitory activity against HDAC1 compared with MS-275 (by IC50)” value is given as “better inhibitory activities against HDAC1 as compared with MS-275”.

Take `Nc1cnccc1NC(=O)c1ccc(CNC(=O)c2cccc3ccccc23)cc1` [Compound V-16]: the “inhibitory activity against HDAC1 compared with MS-275 (by IC50)” value was “better inhibitory activities against HDAC1 as compared with MS-275”.

Regarding `Cc1ccc2[nH]c(C(=O)NCc3ccc(C(=O)Nc4ccccc4N)cc3)cc2c1` [Compound V-19], the “inhibitory activity against HDAC1 compared with MS-275 (by IC50)” value is “better inhibitory activities against HDAC1 as compared with MS-275”.

As for `CC(=O)Nc1ccc2[nH]c(C(=O)NCc3ccc(C(=O)Nc4ccccc4N)cc3)cc2c1` [Compound V-25], the “inhibitory activity against HDAC1 compared with MS-275 (by IC50)” value is recorded as “better inhibitory activities against HDAC1 as compared with MS-275”.

The test is the same for the next values; noted with them: compound at 1 μM.
In the case of `Nc1ccc(F)cc1NC(=O)c1ccc(CNC(=O)c2cc3ccccc3s2)cc1` [Compound V-27], the inhibition at 1 µM is 47.6%.

Compound `Nc1ccccc1NC(=O)c1ccc(CNC(=O)c2cc3ccccc3s2)cc1` [Compound V-24] came in with an inhibition at 1 µM of 59.1%.

Take `Nc1cnccc1NC(=O)c1ccc(CNC(=O)c2cccc3ccccc23)cc1` [Compound V-16]: the inhibition at 1 µM worked out at 62.5%.

Consider `Cc1ccc2[nH]c(C(=O)NCc3ccc(C(=O)Nc4ccccc4N)cc3)cc2c1` [Compound V-19], for which at 1 µM the inhibition was 73.1%.

As to `CC(=O)Nc1ccc2[nH]c(C(=O)NCc3ccc(C(=O)Nc4ccccc4N)cc3)cc2c1` [Compound V-25], the inhibition at 1 µM came out at 53.9%.

As for `COc1c(C(=O)NCc2ccc(C(=O)Nc3ccccc3N)cc2)oc2ccccc12` [Compound V-21], 1 µM produced 34.4% inhibition.

The same test, now with this note: compound at 10 μM.
Regarding `Nc1ccc(F)cc1NC(=O)c1ccc(CNC(=O)c2cc3ccccc3s2)cc1` [Compound V-27], at 10 µM the inhibition was 80.2%.

Compound `Nc1ccccc1NC(=O)c1ccc(CNC(=O)c2cc3ccccc3s2)cc1` [Compound V-24] registered an inhibition at 10 µM of 67.4%.

Compound `Nc1cnccc1NC(=O)c1ccc(CNC(=O)c2cccc3ccccc23)cc1` [Compound V-16] had an inhibition at 10 µM of 85.1%.

In turn, `Cc1ccc2[nH]c(C(=O)NCc3ccc(C(=O)Nc4ccccc4N)cc3)cc2c1` [Compound V-19] returned an inhibition at 10 µM of 84%.

In the case of `CC(=O)Nc1ccc2[nH]c(C(=O)NCc3ccc(C(=O)Nc4ccccc4N)cc3)cc2c1` [Compound V-25], the inhibition at 10 µM worked out at 76.2%.

`COc1c(C(=O)NCc2ccc(C(=O)Nc3ccccc3N)cc2)oc2ccccc12` [Compound V-21] showed an inhibition at 10 µM of 68.8%.
